Experimental data as given in ChEMBL document CHEMBL1287743, “Comparative inhibitory activity of 3'- and 5'-functionalized nucleosides on ribonuclease A” (Bioorg Med Chem, 2010).
Calls of active or inactive are those of the source. The calls are words filed in the database; no cut-off is given here.

Columns and labels:
Ribonuclease pancreatic = molecular target: T1, Ribonuclease pancreatic (Bos taurus, UniProt P61823); experiment: Competitive inhibition of bovine pancreatic RNase A ribonucleolytic activity of by Dixon plot analysis
T1 sequence (P61823 whole entry): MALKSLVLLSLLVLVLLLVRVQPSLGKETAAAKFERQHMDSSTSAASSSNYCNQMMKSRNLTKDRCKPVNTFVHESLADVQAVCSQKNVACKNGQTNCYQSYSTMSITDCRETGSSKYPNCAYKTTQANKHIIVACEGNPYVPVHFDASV

[1] = molecular target: T2, Ribonuclease pancreatic (Bos taurus) (UniProt P61823); experiment: Inhibition of bovine pancreatic RNase A assessed as degradation of tRNA at 1.9 mM after 6 hrs using ethidium bromide staining by agarose gel-based assay
T2 sequence (whole entry): T1 sequence (P61823 whole entry)

[2] = molecular target: T2, Ribonuclease pancreatic (Bos taurus); experiment: Inhibition of bovine pancreatic RNase A ribonucleolytic activity of RNase A at 2.5 mM after 2 hrs by precipitation assay

Ki (Ribonuclease pancreatic)	inhibition [1]	inhibition [2]	SMILES
37 µM	Active	47.6%	Cc1cn([C@H]2C[C@H](NC(=O)C(N)CC(=O)O)[C@@H](CO)O2)c(=O)[nH]c1=O (some centres undefined)
193 µM	Active	23.5%	Cc1cn([C@H]2C[C@H](O)[C@@H](C(=O)O)O2)c(=O)[nH]c1=O [5'-CARBOXY THYMIDINE]
67 µM	Active	32.2%	Nc1ncnc2c1ncn2[C@@H]1O[C@H](C(=O)O)[C@@H](O)[C@H]1O [5'-CARBOXY ADENOSINE]
